# Assay results reported in patent US8183287B2, “Pharmaceutical formulations and compositions of a selective antagonist of either CXCR2 or both CXCR1 and CXCR2 and methods of using the same for treating inflammatory disorders” (Schering Corporation, priority 2006, dated 2012).
# Where two headings read alike, the source gives them in different places.
# Assays:
# [1] = clinical study (iii): multiple-dose oral pharmacokinetics, Formulation 1 capsules; format: in vivo, human; details: for AUC(0-t): read-out: AUC (0-24 hr) Mean; for Tmax: read-out: Tmax Median
# [2] = clinical study in subjects with severe psoriasis; format: in vivo, human; details: 28 days
# Protocol: This study, illustrated schematically in FIG. 6A, was designed as a prospective, randomized, double-blind, placebo-controlled, parallel-group study in subjects with moderate to severe psoriasis.
# Each treatment is administered for 28 days. After twelve patients have completed dosing, a determination is made on the progression of the study as outlined in FIG. 6B.
# Clinical Assessment. At Screening, Baseline, and Days 1, 8, 15, 29, 36, and 57 the clinical psoriasis activity (PASI and physician global assessment) is determined for each patient.
# Efficacy Analyses: The primary efficacy endpoint is the response defined as a ≧50% decrease from baseline in the PASI at the end of 28 days of treatment as well as PGA. The data for the secondary endpoints detailed below are listed and summarized by treatment group using descriptive statistics. Specifically, • percent reduction on Day 28 relative to baseline of psoriatic plaque cellularity, with subpopulation analysis of neutrophils (CD50, Cathepsin G) and T-lymphocytes (CD3+, CD4+, CD8+) • change from baseline in mRNA expression of Gro-α, IL-8, and CXCR2 in the psoriatic plaque and peripheral blood • change from baseline in plasma chemokine concentrations including Gro-α and IL-8
# [3] = system: neutrophil recruitment to the lungs; assay: neutrophil recruitment to the lungs in response to challenge, oral dosing; format: in vivo; details: orally administered
# Description: (§1) WO 02/083624 describes this compound (as Examples 360.31 and 405), process of making the same, as well as treatment of chemokine-related diseases and cancer using the same. Likewise, WO 03/080053 describes the treatment of chemokine-related diseases using this compound.
# [4] = system: pulmonary mucin production; assay: pulmonary mucin production, prolonged treatment; format: in vivo
# Description: as §1
# [5] = clinical study (ii): single-dose 30 mg, fasted or fed subjects, Formulation 1 capsules; format: in vivo, human; details: single oral dose 30 mg; for Cmax / AUC / half-life / Tmax: both sexes, human, plasma, po, 30 mg; for Cmax / AUC / half-life / Tmax / Tf Mean: healthy subjects; for half-life: read-out: t1/2 Mean; for Tmax: read-out: Tmax Median
# [6] = system: histological changes in arthritic joints; assay: histological changes in arthritic joints, prolonged treatment; format: in vivo; details: rats
# Description: as §1
# clinical = details: both, human
# [7] = clinical study in subjects with moderate to severe COPD; format: in vivo, human; details: subjects with moderate to severe COPD, 3, 10, 30 mg, 12 weeks
# Protocol: This study, illustrated schematically in FIG. 4, is a double-blind, placebo-controlled, randomized, two-part study in subjects with moderate to severe COPD. Part 1 is a double-blind, placebo-controlled, randomized, rising-dose study consisting of four treatment groups enrolled in three cohorts (FIG. 4A). The treatment period for each cohort is 12 weeks in duration. […] After completing the safety analyses for Part 1 for Cohorts 1-3, Part 2 is conducted as detailed below. Part 2 is a double-blind, placebo-controlled, randomized, parallel group study consisting of four treatment groups enrolled as one cohort (FIG. 4B). The treatment period for Cohort 4 is 12 weeks in duration. […] Efficacy analyses are based solely on data collected from Part 2, Cohort 4 wherein the primary efficacy parameters measured are changes from Baseline in FEV1 and changes from Baseline in SCDS, both examined as longitudinal averages over the 12-week treatment period. […]
# [8] = clinical study in subjects with severe neutrophilic asthma; format: in vivo, human; details: 12 weeks
# Protocol: This study, illustrated schematically in FIG. 5, is a randomized, double-blind, placebo-controlled study in subjects with severe neutrophilic asthma.
# Safety is assessed after approximately 30 subjects have completed 2 weeks of treatment in DRF. Variables include the effect on sputum neutrophils, PBNs, adverse events (AEs) and other safety data.
# Primary Efficacy Endpoint: The primary efficacy endpoint is the asthma exacerbation status (‘yes’ for presence of an exacerbation, ‘no’ for absence) during the 12-week treatment period.
# [9] = both sexes, human, plasma, oral, 10 mg, multiple-dose 10 mg, Day 1
# [10] = both sexes, human, plasma, oral, 10 mg, multiple-dose 10 mg, Day 14
# [11] = both sexes, human, plasma, oral, 30 mg, multiple-dose 30 mg, Day 1
# [12] = both sexes, human, plasma, oral, 30 mg, multiple-dose 30 mg, Day 14
# [13] = both sexes, human, plasma, oral, 50 mg, multiple-dose 50 mg, Day 1
# [14] = both sexes, human, plasma, oral, 50 mg, multiple-dose 50 mg, Day 14
structure (smiles),measurement,setting,value
CC[C@@H](Nc1c(Nc2cccc(C(=O)N(C)C)c2O)c(=O)c1=O)c1ccc(C)o1 [Compound I],Cmax,[1]; [9],76 ng/mL
same,AUC(0-t),[1]; [9],137 ng·h/mL
same,Tmax,[1]; [9],30 min
same,Cmax,[1]; [10],78.1 ng/mL
same,AUC(0-t),[1]; [10],156 ng·h/mL
same,Tmax,[1]; [10],30 min
same,Cmax,[1]; [11],173 ng/mL
same,AUC(0-t),[1]; [11],397 ng·h/mL
same,Tmax,[1]; [11],30 min
same,Cmax,[1]; [12],159 ng/mL
same,AUC(0-t),[1]; [12],414 ng·h/mL
same,Tmax,[1]; [12],30 min
same,Cmax,[1]; [13],239 ng/mL
same,AUC(0-t),[1]; [13],681 ng·h/mL
same,Tmax,[1]; [13],45 min
same,Cmax,[1]; [14],279 ng/mL
same,AUC(0-t),[1]; [14],825 ng·h/mL
same,Tmax,[1]; [14],30 min
same,half-life,"[1]; both sexes, human, plasma, oral, multiple-dose 50 mg, Day 14, n = 7, read-out: t1/2 Mean (converted)",828 min
same,steady state achieved by,[1]; multiple doses,≤ 11 days
same,PASI,[2],reduction in PASI
same,neutrophil recruitment to the lungs,[3]; mice,effectively blocks
same,neutrophil recruitment to the lungs,[3]; monkeys,effectively blocks
same,neutrophil recruitment to the lungs,[3]; rats,effectively blocks
same,pulmonary mucin production,[4]; mice,blocks
same,pulmonary mucin production,[4]; rats,blocks
same,Cmax,[5]; fasted,147 ng/mL
same,AUC,"[5]; fasted, n = 10, read-out: AUC(I) Mean",563 ng·h/mL
same,half-life,"[5]; fasted, n = 10",1250 min
same,AUC,"[5]; fasted, read-out: AUC (tf) Mean",484 ng·h/mL
same,Tmax,[5]; fasted,45 min
same,Cmax,[5]; fed,122 ng/mL
same,AUC,"[5]; fed, n = 7, read-out: AUC(I) Mean",572 ng·h/mL
same,half-life,"[5]; fed, n = 7",1370 min
same,AUC,"[5]; fed, read-out: AUC (tf) Mean",489 ng·h/mL
same,Tmax,[5]; fed,120 min
same,mean Cmax with food lower than Compound I alone,[5],17%
same,Tf Mean,[5]; fasted,40 h
same,Tf Mean,[5]; fed,32.3 h
same,histological changes in arthritic joints,[6],blocks
same,Vd/F,clinical; in vivo,1470 to 2200 L
same,half-life,"clinical; plasma, oral",678 to 1370 min
same,sputum neutrophil and peripheral blood neutrophils,[7],reduction in sputum neutrophil and peripheral blood neutrophils
same,asthma exacerbation,[8],reduction in asthma exacerbation
